ChEMBL document CHEMBL2086307, “Design, synthesis and identification of a new class of triarylmethyl amine compounds as inhibitors of apolipoprotein E production” (2012)
The source made the active and inactive calls. The calls are words filed in the database; no cut-off is given here.

System: CCF-STTG1
Assay: Inhibition of apolipoprotein E production in human CCF-STTG1 cells at 10 uM after 24 hrs by ELISA relative to vehicle-treated control
Type: functional
Conditions: for inhibition at 10 µM: CCF-STTG1, 24 h

SMILES | inhibition | inhibition at 10 µM [%]
CCCCN(CCCC)C(c1ccccc1)(c1ccccc1)c1ccccc1 | Active | 
c1ccc(CNC(c2ccccc2)(c2ccccc2)c2ccccc2)cc1 | Active | 
CCN(CC)C(c1ccccc1)(c1ccccc1)c1ccc2ccccc2c1 | Active | 
CN(C)C(c1ccccc1)(c1ccccc1)c1ccccc1 | Active | 
O=C(c1ccccc1)c1ccc(OCc2ccccc2)cc1 | Active | 
O=C(c1ccccc1)c1ccc(O)cc1 | Active | 
O=C(c1ccccc1)C(O)c1ccccc1 (stereo unspecified) | Active | 
CCCCN(CCCC)C(c1ccccc1)(c1ccccc1)c1ccc2ccccc2c1 | Active | 
COc1ccc(C(Nc2ccccc2)(c2ccccc2)c2ccccc2)cc1 | Active | 
c1ccc(C(NCC2CCCCC2)(c2ccccc2)c2ccccc2)cc1 |  | 51
COc1ccc(C(NCC(C)C)(c2ccccc2)c2ccccc2)cc1 | Active | 
CCN(CC)C(c1ccccc1)(c1ccccc1)c1ccccc1 | Active | 
CC(C)CNC(c1ccccc1)(c1ccccc1)c1ccccc1 | Active | 
CCC(C)NC(c1ccccc1)(c1ccccc1)c1ccccc1 (stereo unspecified) | Active | 
CCC(C)NC(c1ccccc1)(c1ccccc1)c1ccc2ccccc2c1 (stereo unspecified) |  | 66
c1ccc(C(c2ccccc2)(c2ccc3ccccc3c2)N2CCCC2)cc1 |  | 46
c1ccc(C(c2ccccc2)(c2ccccc2)N2CCNCC2)cc1 | Active | 
COc1ccc(C(c2ccccc2)(c2ccccc2)N2CCOCC2)cc1 | Active | 
COc1ccc(C(c2ccccc2)(c2ccccc2)N2CCCCC2)cc1 | Active | 
CC(NC(c1ccccc1)(c1ccccc1)c1ccc2ccccc2c1)c1ccccc1 (racemic) | Active | 
COc1ccc(C(c2ccccc2)(c2ccccc2)N(C)C)cc1 | Active | 

SMILES | inhibition | inhibition at 10 µM [%]
c1ccc(CN(Cc2ccccc2)C(c2ccccc2)(c2ccccc2)c2ccccc2)cc1 | Active | 
c1ccc(C(c2ccccc2)(c2ccccc2)N2CCCC2)cc1 | Active | 
CCC(C)NC(c1ccccc1)(c1ccccc1)c1ccc(OC)cc1 (stereo unspecified) | Active | 
CCN(CC)C(c1ccccc1)(c1ccccc1)c1ccc(OC)cc1 | Active | 
c1ccc(C(c2ccccc2)(c2ccccc2)N2CCCCC2)cc1 | Active | 
c1ccc(NC(c2ccccc2)(c2ccccc2)c2ccccc2)cc1 | Active | 
CCCCN(CCCC)C(c1ccccc1)(c1ccccc1)c1ccc(OC)cc1 | Active | 
c1ccc(C(NC2CCCCC2)(c2ccccc2)c2ccccc2)cc1 | Active | 
O=C(c1ccccc1)c1ccccc1 | Active | 
COc1ccc(C(NCc2ccccc2)(c2ccccc2)c2ccccc2)cc1 | Active | 
c1ccc(C(c2ccccc2)(c2ccc3ccccc3c2)N2CCOCC2)cc1 |  | 49
CN(C)C(c1ccccc1)(c1ccccc1)c1ccc2ccccc2c1 | Active | 
COc1ccc(C(c2ccccc2)(c2ccccc2)N2CCCC2)cc1 | Active | 
c1ccc(C(c2ccccc2)(c2ccc3ccccc3c2)N2CCCCC2)cc1 | Active | 
COc1ccc(C(NC2CCCCC2)(c2ccccc2)c2ccccc2)cc1 | Active | 
CC(NC(c1ccccc1)(c1ccccc1)c1ccccc1)c1ccccc1 (racemic) | Active | 
c1ccc(C(NC2CCCCC2)(c2ccccc2)c2ccc3ccccc3c2)cc1 | Active | 
COc1ccc(C(c2ccccc2)(c2ccccc2)N2CCNCC2)cc1 | Active | 
CC(C)CNC(c1ccccc1)(c1ccccc1)c1ccc2ccccc2c1 |  | 50
c1ccc(C(c2ccccc2)(c2ccccc2)N2CCOCC2)cc1 | Active | 
